In patent US8163732B2, “Tricyclic heteroaryl compounds useful as inhibitors of Janus kinase” (Vertex Pharmaceuticals Incorporated, priority 2005, dated 2012):
pKi: −log10 of the molar value.

How the values were obtained:
JAK-2 = JAK-2 (Homo sapiens, UniProt O60674); assay: JAK-2 inhibition assay; assay type: biochemical
JAK-3 = biological target: T1, JAK-3 (Homo sapiens, UniProt P52333); assay: JAK-3 inhibition assay; assay type: biochemical
T1 sequence (P52333 1-1124): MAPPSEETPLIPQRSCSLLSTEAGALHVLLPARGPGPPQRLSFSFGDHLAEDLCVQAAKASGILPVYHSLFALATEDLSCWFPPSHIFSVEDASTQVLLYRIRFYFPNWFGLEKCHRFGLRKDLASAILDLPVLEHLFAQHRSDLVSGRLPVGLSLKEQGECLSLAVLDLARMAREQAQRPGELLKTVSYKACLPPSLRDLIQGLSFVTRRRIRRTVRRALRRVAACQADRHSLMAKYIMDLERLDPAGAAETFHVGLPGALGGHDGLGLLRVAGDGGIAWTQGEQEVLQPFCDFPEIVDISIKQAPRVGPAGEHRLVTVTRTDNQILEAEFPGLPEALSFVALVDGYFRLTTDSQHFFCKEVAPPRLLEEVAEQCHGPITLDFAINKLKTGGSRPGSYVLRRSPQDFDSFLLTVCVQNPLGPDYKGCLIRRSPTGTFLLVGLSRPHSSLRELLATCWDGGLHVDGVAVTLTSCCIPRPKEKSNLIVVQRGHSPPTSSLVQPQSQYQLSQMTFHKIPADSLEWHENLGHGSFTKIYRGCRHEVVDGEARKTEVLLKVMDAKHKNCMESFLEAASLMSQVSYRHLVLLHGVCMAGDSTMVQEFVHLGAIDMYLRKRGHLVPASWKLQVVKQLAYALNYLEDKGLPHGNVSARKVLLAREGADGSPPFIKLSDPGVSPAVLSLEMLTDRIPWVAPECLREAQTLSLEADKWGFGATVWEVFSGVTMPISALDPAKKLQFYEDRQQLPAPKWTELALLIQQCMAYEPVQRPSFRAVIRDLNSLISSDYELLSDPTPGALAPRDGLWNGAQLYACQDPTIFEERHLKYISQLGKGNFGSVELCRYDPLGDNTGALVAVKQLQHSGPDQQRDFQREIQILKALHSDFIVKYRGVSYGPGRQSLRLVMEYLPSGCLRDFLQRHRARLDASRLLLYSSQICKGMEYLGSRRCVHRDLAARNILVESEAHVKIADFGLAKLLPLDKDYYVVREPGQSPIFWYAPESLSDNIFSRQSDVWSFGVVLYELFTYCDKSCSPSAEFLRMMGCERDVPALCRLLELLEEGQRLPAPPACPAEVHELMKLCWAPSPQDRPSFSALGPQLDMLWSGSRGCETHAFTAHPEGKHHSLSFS
Procedure: Compounds were screened for their ability to inhibit JAK using the assay shown below. Reactions were carried out in a kinase buffer containing 100 mM HEPES (pH 7.4), 1 mM DTT, 10 mM MgCl2, 25 mM NaCl, and 0.01% BSA.
Substrate concentrations in the assay were 5 μM ATP (200 μCi/μmole ATP) and 1 μM poly(Glu)4Tyr. Reactions were carried out at 25° C. and 1 nM JAK-3.
To each well of a 96 well polycarbonate plate was added 1.5 μL of a candidate JAK-3 inhibitor along with 50 μL of kinase buffer containing 2 μM poly(Glu)4Tyr and 10 μM ATP. This was then mixed and 50 μL of kinase buffer containing 2 nM JAK-3 enzyme was added to start the reaction. After 20 minutes at room temperature (25° C.), the reaction was stopped with 50 μL of 20% trichloroacetic acid (TCA) that also contained 0.4 mM ATP. The entire contents of each well were then transferred to a 96 well glass fiber filter plate using a TomTek Cell Harvester. After washing, 60 μL of scintillation fluid was added and ^33P incorporation detected on a Perkin Elmer TopCount. After removing the mean background values for all of the data points, the data were fit using Prism software to obtain a Ki value (app).

JAK-2, sequence (O60674 whole entry): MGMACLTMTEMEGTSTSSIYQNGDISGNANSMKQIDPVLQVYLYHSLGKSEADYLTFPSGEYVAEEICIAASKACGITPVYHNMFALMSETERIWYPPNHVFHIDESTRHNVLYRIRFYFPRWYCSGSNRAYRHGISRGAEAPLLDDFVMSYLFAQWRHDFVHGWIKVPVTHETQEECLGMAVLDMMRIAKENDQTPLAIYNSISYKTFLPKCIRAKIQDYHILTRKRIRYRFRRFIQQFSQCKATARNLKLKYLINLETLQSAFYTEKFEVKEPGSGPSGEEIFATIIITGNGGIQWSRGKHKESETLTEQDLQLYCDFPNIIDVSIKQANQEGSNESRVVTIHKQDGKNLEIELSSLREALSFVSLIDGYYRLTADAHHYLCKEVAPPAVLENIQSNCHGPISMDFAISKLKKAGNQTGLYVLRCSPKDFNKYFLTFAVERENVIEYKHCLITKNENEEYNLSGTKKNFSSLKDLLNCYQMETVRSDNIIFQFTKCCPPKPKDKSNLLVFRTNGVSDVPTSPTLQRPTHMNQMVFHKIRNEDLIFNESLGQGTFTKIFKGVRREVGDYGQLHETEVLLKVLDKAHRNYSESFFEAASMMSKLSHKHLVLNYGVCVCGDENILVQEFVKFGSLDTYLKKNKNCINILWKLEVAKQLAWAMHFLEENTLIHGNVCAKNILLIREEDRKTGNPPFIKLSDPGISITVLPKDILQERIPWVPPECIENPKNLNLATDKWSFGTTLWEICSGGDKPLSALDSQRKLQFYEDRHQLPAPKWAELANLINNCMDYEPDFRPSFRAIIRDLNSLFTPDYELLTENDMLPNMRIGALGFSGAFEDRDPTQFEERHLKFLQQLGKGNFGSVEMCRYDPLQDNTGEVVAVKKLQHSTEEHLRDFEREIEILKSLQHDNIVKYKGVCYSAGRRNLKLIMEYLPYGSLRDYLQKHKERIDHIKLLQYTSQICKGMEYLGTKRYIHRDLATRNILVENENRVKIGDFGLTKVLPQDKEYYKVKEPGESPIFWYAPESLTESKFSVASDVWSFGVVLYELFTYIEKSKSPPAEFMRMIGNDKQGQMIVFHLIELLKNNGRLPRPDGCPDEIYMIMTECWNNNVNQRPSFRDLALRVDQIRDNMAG

Structure (SMILES)	pKi (JAK-2)	pKi (JAK-3)
Oc1ccc(C2Nc3ccccc3-c3ccnc4[nH]cc2c34)cc1C(F)(F)F (stereo not shown) [Compound 104]	5.60 to 6.60	5.60 to 6.60
c1ccc(C2Nc3ccccc3-c3ccnc4[nH]cc2c34)nc1 (stereo not shown) [Compound 37]	< 5.60	< 5.60
CC(C)(C)c1cc(C2Nc3ccccc3-c3ccnc4[nH]cc2c34)cc(C(C)(C)C)c1O (stereo not shown) [Compound 108]	< 5.60	< 5.60
O=C1Nc2ccccc2-c2ncnc3[nH]cc(c23)C1c1ccc(O)cc1 (stereo not shown) [Compound 158]	> 6.60	≥ 6.60
O=C1Nc2ccccc2-c2ccnc3[nH]cc(c23)C1c1ccc(O)c(F)c1 (stereo not shown) [Compound 150]	> 6.60	≥ 6.60
Oc1ccc(C2Nc3ccccc3-c3ccnc4[nH]cc2c34)cc1Cl (stereo not shown) [Compound 74]	> 6.60	≥ 6.60
O=[N+]([O-])c1cc(O)ccc1C1Nc2ccccc2-c2ccnc3[nH]cc1c23 (stereo not shown) [Compound 71]	> 6.60	≥ 6.60
Cc1cc(C2Nc3ccccc3-c3ccnc4[nH]cc2c34)cc(C)c1O (stereo not shown) [Compound 79]	5.60 to 6.60	5.60 to 6.60
Oc1ccc(C2Nc3ccccc3-c3c(Cl)cnc4[nH]cc2c34)c(Cl)c1 (stereo not shown) [Compound 53]	> 6.60	≥ 6.60
COC(=O)C1(c2ccc(N)cc2)Nc2ccccc2-c2ccnc3[nH]cc1c23 (stereo not shown) [Compound 102]	< 5.60	< 5.60
c1ccc2c(c1)NC(c1ccc3c(c1)CCO3)c1c[nH]c3nccc-2c13 (stereo not shown) [Compound 141]	> 6.60	5.60 to 6.60
Cc1cc(C2Nc3ccccc3-c3ncnc4[nH]cc2c34)ccc1O (stereo not shown) [Compound 83]	> 6.60	≥ 6.60
CS(=O)(=O)c1ccc(C2Nc3ccccc3-c3ccnc4[nH]cc2c34)cc1 (stereo not shown) [Compound 121]	< 5.60	< 5.60
Oc1ccc(C2Nc3ccccc3-c3ccnc4[nH]cc2c34)c(Cl)c1 (stereo not shown) [Compound 46]	> 6.60	≥ 6.60
c1ccc2c(c1)NC(c1ccc3c(c1)OCO3)c1c[nH]c3nccc-2c13 (stereo not shown) [Compound 22]	> 6.60	5.60 to 6.60
c1ccc2c(c1)N=C(c1ccncc1)c1c[nH]c3nccc-2c13 [Compound 44]	> 6.60	5.60 to 6.60
CCOc1cc(C2Nc3ccccc3-c3ccnc4[nH]cc2c34)ccc1O (stereo not shown) [Compound 148]	5.60 to 6.60	5.60 to 6.60
Clc1cccc(Cl)c1C1Nc2ccccc2-c2ccnc3[nH]cc1c23 (stereo not shown) [Compound 42]	5.60 to 6.60	5.60 to 6.60
C1=Nc2ccccc2-c2ccnc3[nH]cc1c23 [Compound 109]	5.60 to 6.60	5.60 to 6.60
Clc1cccc(C2Nc3ccccc3-c3ccnc4[nH]cc2c34)c1Cl (stereo not shown) [Compound 41]	5.60 to 6.60	< 5.60
Fc1cccc(F)c1C1Nc2ncccc2-c2ccnc3[nH]cc1c23 (stereo not shown) [Compound 47]	5.60 to 6.60	5.60 to 6.60

Structure (SMILES)	pKi (JAK-2)	pKi (JAK-3)
Oc1ccc(C2=Nc3ccccc3-c3ccnc4[nH]cc2c34)cc1OC(F)(F)F [Compound 113]	> 6.60	≥ 6.60
Brc1ccccc1C1Nc2ccccc2-c2ccnc3[nH]cc1c23 (stereo not shown) [Compound 21]	5.60 to 6.60	5.60 to 6.60
Fc1cccc(F)c1C1Nc2ccccc2-c2ccnc3[nH]cc1c23 (stereo not shown) [Compound 18]	> 6.60	5.60 to 6.60
Fc1cc(C2Nc3ccccc3-c3ccnc4[nH]cc2c34)ccc1Cl (stereo not shown) [Compound 39]	> 6.60	5.60 to 6.60
Oc1ccc(C2Nc3ccccc3-c3ccnc4[nH]cc2c34)cc1I (stereo not shown) [Compound 75]	> 6.60	≥ 6.60
Fc1ccc(C2Nc3ccccc3-c3ccnc4[nH]cc2c34)cc1 (stereo not shown) [Compound 12]	5.60 to 6.60	5.60 to 6.60
Cc1ccc(C2C(=O)Nc3ccccc3-c3ncnc4[nH]cc2c34)cc1 (stereo not shown) [Compound 161]	> 6.60	5.60 to 6.60
Fc1cc(F)c(C2Nc3ccccc3-c3ccnc4[nH]cc2c34)cc1F (stereo not shown) [Compound 31]	> 6.60	5.60 to 6.60
COC(=O)Nc1ccc(C2Nc3ccccc3-c3ccnc4[nH]cc2c34)cc1 (stereo not shown) [Compound 99]	< 5.60	5.60 to 6.60
OCCCCC1=Nc2ccccc2-c2ccnc3[nH]cc1c23 [Compound 58]	5.60 to 6.60	5.60 to 6.60
Oc1ccc(C2Nc3ncccc3-c3ccnc4[nH]cc2c34)cc1 (stereo not shown) [Compound 97]	> 6.60	≥ 6.60
COc1cc(C2Nc3ccccc3-c3ncnc4[nH]cc2c34)cc(OC)c1O (stereo not shown) [Compound 85]	5.60 to 6.60	5.60 to 6.60
Oc1ccc(C2Nc3ccccc3-c3ncnc4[nH]cc2c34)c(Cl)c1 (stereo not shown) [Compound 55]	> 6.60	≥ 6.60
COc1cc(C2Nc3ccccc3-c3ccnc4[nH]cc2c34)cc(Cl)c1O (stereo not shown) [Compound 112]	> 6.60	≥ 6.60
Nc1ccc(C2=Nc3ccccc3-c3ccnc4[nH]cc2c34)cc1 [Compound 94]	> 6.60	≥ 6.60
Fc1ccc(F)c(C2Nc3ccccc3-c3ncnc4[nH]cc2c34)c1F (stereo not shown) [Compound 56]	> 6.60	≥ 6.60
FC(F)(F)c1ccccc1C1Nc2ccccc2-c2ccnc3[nH]cc1c23 (stereo not shown) [Compound 19]	5.60 to 6.60	5.60 to 6.60
[O-][n+]1ccc(C2Nc3ccccc3-c3ccnc4[nH]cc2c34)cc1 (stereo not shown) [Compound 122]	< 5.60	< 5.60
Fc1cccc(C2Nc3ccccc3-c3ncnc4[nH]cc2c34)c1 (stereo not shown) [Compound 50]	5.60 to 6.60	< 5.60
Cc1ccc(C2Nc3ccccc3-c3ccnc4[nH]cc2c34)cc1 (stereo not shown) [Compound 137]	5.60 to 6.60	< 5.60
